Results from patent publication US20190195864A1, “CELL-FREE SENSOR SYSTEMS” (priority 2016, published 2019).

What was measured:
tetR = target: T1, tetR (Escherichia coli, UniProt P04483); assay: T7 in vitro transcription from tetR-controlled reporter plasmid, ATC titration; format: biochemical; conditions: 100 nM tetR and 100 nM reporter plasmid; ATC titrated 2 uM to 0 uM; 37° C., 4 hours; agarose gel readout
T1 construct: The tetR gene was cloned into the pET28a(+) E. coli expression plasmid; 6xHis (C); made in house; host or cells: E. coli BL21(DE3), pET28a(+)
T1 sequence (P04483 whole entry): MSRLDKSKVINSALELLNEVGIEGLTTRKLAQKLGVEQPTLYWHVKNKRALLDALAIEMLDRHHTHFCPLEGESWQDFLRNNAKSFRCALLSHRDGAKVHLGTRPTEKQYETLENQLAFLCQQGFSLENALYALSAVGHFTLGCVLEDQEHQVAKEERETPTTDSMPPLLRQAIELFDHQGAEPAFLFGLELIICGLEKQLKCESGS
Description: Using a fixed amount of tetR and plasmid, 100 nM each, T7 transcription reactions were set up as described above with the inclusion of a titrating amount of anhydrotetracycline (ATC), the native ligand for tetR. The ATC titration ranged from 2 uM to 0 uM. The IVT transcripts were analyzed by gel as described above. […] This titratable response is a requirement when working with engineered sensors cell-free to enrich a population for those members with improved ligand binding function in the pool.

cells = assay: cell-based dose response of TetR sensors to nootkatone (FIG. 10); conditions: cell-based sensor assay
Excerpt: This is particularly useful in situations when, inter alia, a target molecule is toxic to cells in vivo and therefore a sensor to conduct cell-based detection is impractical. […] Accordingly, the detection of this target molecule would benefit from the cell-free methods described herein.

| SMILES | ATC concentration giving a strong RNA band similar to no tetR (full derepression of transcription) (tetR) [nM] | nootkatone concentration after which there is a toxic effect and the cells start to die (cells) [mg/mL] |
| --- | --- | --- |
| Cc1c2c(c(O)c3c(O)cccc13)C(=O)[C@]1(O)C(=O)C(C(N)=O)=C(O)[C@@H](N(C)C)[C@@H]1C2 [ATC, anhydrotetracycline] | 200 | – |
| C=C(C)[C@@H]1CCC2=CC(=O)C[C@@H](C)[C@]2(C)C1 [nootkatone] | – | > 0.5 |
